Reference: PMC10165273, “Itch receptor MRGPRX4 interacts with the receptor activity–modifying proteins” (The Journal of Biological Chemistry, 2023)
Several values for one entry are separate records, joined by “and”; a condition that tells them apart may be missing. Equal entries are not always repeated. Where two headings read alike, the source gives them in different places.

Molecular target: T1, MRGPRX4 + RAMP2 (Homo sapiens, UniProt Q96LA9)
T1 construct: expressed in transfected cells; host or cells: HEK293T
Assay: IP1 accumulation, MRGPRX4 coexpressed with RAMP2
Format: cell-based
Set-up: key to IP1 Basal / response to agonist, X4:ramp2.I:0.25 / response to agonist, X4:ramp2.I:0.5 / response to agonist, X4:ramp2.I:1: % IP1; unstimulated mock = 0%, fully stimulated MRGPRX4 = 100%
Details: for activation at 20 µM / activation at 4 µM / activation at 0.8 µM / activation at […] / activation at 0.032 µM / activation at 100 µM: 2 h; for activation at 100 µM: log [Nateglinide] (M) -4; for EC50: Figure 4a top, individual replicates, read-out: potency (converted)
Protocol: HEK293T cells were transfected with 1 pg/cell of MRGPRX4 DNA, and the amount of DNA was kept constant at 2 pg/cell with pcDNA3.1(+) empty vector, unless otherwise specified. Twenty four hours after transfection, IP1 assay was performed as previously described ([51]). When applicable, cells were treated with 1 μM YM254890 (YM) or different concentrations of U73122 for 1 h prior to addition of agonist or buffer. After incubation for 2 h, HTRF reagents and IP1 calibration standards were added and incubated for 2 h in the dark at room temperature. Time-resolved fluorescence signals were read on the BioTek Synergy NEO-TRF Hybrid multi-mode reader (BioTek Instruments). All data were carried out in three independent experiments with three technical replicate each.
For RAMP DNA titration assay, HEK293T cells were cotransfected with a constant amount of 1 pg/cell of FLAG-MRGPRX4-GFP10-1D4 to which a serial dilution of 1, 0.75, 0.5, 0.25, or 0 pg/cell of each HA-RAMP-OLLAS was added. For a homogenous transfection of MRGPRX4, a master mix of MRGPRX4 DNA was made prior to addition of the RAMP DNA. […]
Data reduction, standard calibration, and transformation of HTRF data were performed as previously described ([51]). Normalized IP1 values were calculated relative to the unstimulated mock-transfected cells (set to 0%) and fully stimulated MRGPRX4 (alone if applicable) (set to 100%).

T1 sequence (Q96LA9 whole entry): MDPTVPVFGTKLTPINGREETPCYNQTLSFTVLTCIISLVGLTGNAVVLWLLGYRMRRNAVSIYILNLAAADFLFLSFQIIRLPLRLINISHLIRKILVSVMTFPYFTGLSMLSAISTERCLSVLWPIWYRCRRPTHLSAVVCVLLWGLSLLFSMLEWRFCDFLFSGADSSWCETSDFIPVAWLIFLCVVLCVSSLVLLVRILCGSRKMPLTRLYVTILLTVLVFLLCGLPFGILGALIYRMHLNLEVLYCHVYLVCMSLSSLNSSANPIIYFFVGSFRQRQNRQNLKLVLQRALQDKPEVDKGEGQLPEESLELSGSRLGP

**Q.** How did the activation at 20 µM (log [nateglinide] (M) -4.69897, MRGPRX4+RAMP2 0.75pg 1:0.75, Supplementary Figure 5e, read-out: IP1 accumulation (normalized)) turn out when `CC(C)[C@H]1CC[C@H](C(=O)N[C@H](Cc2ccccc2)C(=O)O)CC1` [Nateglinide] was run?
**A.** 50.8%

**Q.** What about the activation at 20 µM (log [nateglinide] (M) -4.69897, MRGPRX4+RAMP2 1pg 1:1, Supplementary Figure 5e, 5g, read-out: IP1 accumulation (normalized)) of the same compound?
**A.** 31.2%

**Q.** And the activation at 4 µM (log [nateglinide] (M) -5.39794, MRGPRX4+RAMP2 0.5pg 1:0.5, Supplementary Figure 5e, read-out: IP1 accumulation (normalized))?
**A.** 27.4%

**Q.** And the activation at 4 µM (log [nateglinide] (M) -5.39794, MRGPRX4+RAMP2 0.75pg 1:0.75, Supplementary Figure 5e, read-out: IP1 accumulation (normalized))?
**A.** 22.7%

**Q.** And the activation at 4 µM (log [nateglinide] (M) -5.39794, MRGPRX4+RAMP2 1pg 1:1, Supplementary Figure 5e, 5g, read-out: IP1 accumulation (normalized))?
**A.** 15%

**Q.** What about the activation at 0.8 µM (log [nateglinide] (M) -6.09691, MRGPRX4+RAMP2 0.5pg 1:0.5, Supplementary Figure 5e, read-out: IP1 accumulation (normalized)) of the same compound?
**A.** 14.1%

**Q.** What about the activation at 0.8 µM (log [nateglinide] (M) -6.09691, MRGPRX4+RAMP2 0.75pg 1:0.75, Supplementary Figure 5e, read-out: IP1 accumulation (normalized)) of the same compound?
**A.** 9.77%

**Q.** And the activation at 0.8 µM (log [nateglinide] (M) -6.09691, MRGPRX4+RAMP2 1pg 1:1, Supplementary Figure 5e, 5g, read-out: IP1 accumulation (normalized))?
**A.** 5.12%

**Q.** What about the activation at […] (log [nateglinide] (M) -6.79588, MRGPRX4+RAMP2 0.5pg 1:0.5, Supplementary Figure 5e, read-out: IP1 accumulation (normalized)) of the same compound?
**A.** 8.46%

**Q.** What about the activation at […] (log [nateglinide] (M) -6.79588, MRGPRX4+RAMP2 0.75pg 1:0.75, Supplementary Figure 5e, read-out: IP1 accumulation (normalized)) of the same compound?
**A.** 6.53%

**Q.** What about the activation at […] (log [nateglinide] (M) -6.79588, MRGPRX4+RAMP2 1pg 1:1, Supplementary Figure 5e, 5g, read-out: IP1 accumulation (normalized)) of the same compound?
**A.** 3.5%

**Q.** What about the activation at 0.032 µM (log [nateglinide] (M) -7.49485, MRGPRX4+RAMP2 0.5pg 1:0.5, Supplementary Figure 5e, read-out: IP1 accumulation (normalized)) of the same compound?
**A.** 8.31%

**Q.** And the activation at 0.032 µM (log [nateglinide] (M) -7.49485, MRGPRX4+RAMP2 0.75pg 1:0.75, Supplementary Figure 5e, read-out: IP1 accumulation (normalized))?
**A.** 6.16%

**Q.** What about the activation at 0.032 µM (log [nateglinide] (M) -7.49485, MRGPRX4+RAMP2 1pg 1:1, Supplementary Figure 5e, 5g, read-out: IP1 accumulation (normalized)) of the same compound?
**A.** 3.54%

**Q.** What about the activation at 100 µM (ratio MRGPRX4:RAMP2 1:0.25, Fig S3b, read-out: IP1 accumulation) of the same compound?
**A.** 98.8%

**Q.** And the activation at 20 µM (ratio MRGPRX4:RAMP2 1:0.25, log [Nateglinide] (M) -4.69897, Fig S3b, read-out: IP1 accumulation)?
**A.** 58.9%

**Q.** What about the activation at 4 µM (ratio MRGPRX4:RAMP2 1:0.25, log [Nateglinide] (M) -5.39794, Fig S3b, read-out: IP1 accumulation) of the same compound?
**A.** 38%

**Q.** And the activation at 0.8 µM (ratio MRGPRX4:RAMP2 1:0.25, log [Nateglinide] (M) -6.09691, Fig S3b, read-out: IP1 accumulation)?
**A.** 25.5%

**Q.** What about the activation at […] (ratio MRGPRX4:RAMP2 1:0.25, log [Nateglinide] (M) -6.79588, Fig S3b, read-out: IP1 accumulation) of the same compound?
**A.** 22.6%

**Q.** What about the activation at 0.032 µM (ratio MRGPRX4:RAMP2 1:0.25, log [Nateglinide] (M) -7.49485, Fig S3b, read-out: IP1 accumulation) of the same compound?
**A.** 20.5%

**Q.** What about the activation at 100 µM (ratio MRGPRX4:RAMP2 1:0.5, Fig S3b, read-out: IP1 accumulation) of the same compound?
**A.** 67.8%

**Q.** And the activation at 20 µM (ratio MRGPRX4:RAMP2 1:0.5, log [Nateglinide] (M) -4.69897, Fig S3b, read-out: IP1 accumulation)?
**A.** 62.1%

**Q.** And the activation at 4 µM (ratio MRGPRX4:RAMP2 1:0.5, log [Nateglinide] (M) -5.39794, Fig S3b, read-out: IP1 accumulation)?
**A.** 36.6%

**Q.** What about the activation at 0.8 µM (ratio MRGPRX4:RAMP2 1:0.5, log [Nateglinide] (M) -6.09691, Fig S3b, read-out: IP1 accumulation) of the same compound?
**A.** 20.3%

**Q.** What about the activation at […] (ratio MRGPRX4:RAMP2 1:0.5, log [Nateglinide] (M) -6.79588, Fig S3b, read-out: IP1 accumulation) of the same compound?
**A.** 15.7%

**Q.** What about the activation at 0.032 µM (ratio MRGPRX4:RAMP2 1:0.5, log [Nateglinide] (M) -7.49485, Fig S3b, read-out: IP1 accumulation) of the same compound?
**A.** 15.3%

**Q.** What about the activation at 100 µM (ratio MRGPRX4:RAMP2 1:1, Fig S3b, read-out: IP1 accumulation) of the same compound?
**A.** 40.5%

**Q.** What about the activation at 20 µM (ratio MRGPRX4:RAMP2 1:1, log [Nateglinide] (M) -4.69897, Fig S3b, read-out: IP1 accumulation) of the same compound?
**A.** 43.2%

**Q.** And the activation at 4 µM (ratio MRGPRX4:RAMP2 1:1, log [Nateglinide] (M) -5.39794, Fig S3b, read-out: IP1 accumulation)?
**A.** 21.9%

**Q.** And the activation at 0.8 µM (ratio MRGPRX4:RAMP2 1:1, log [Nateglinide] (M) -6.09691, Fig S3b, read-out: IP1 accumulation)?
**A.** 14.1%

**Q.** And the activation at […] (ratio MRGPRX4:RAMP2 1:1, log [Nateglinide] (M) -6.79588, Fig S3b, read-out: IP1 accumulation)?
**A.** 11.3%

**Q.** What about the activation at 0.032 µM (ratio MRGPRX4:RAMP2 1:1, log [Nateglinide] (M) -7.49485, Fig S3b, read-out: IP1 accumulation) of the same compound?
**A.** 11.1%

**Q.** And the activation at 100 µM (ratio MRGPRX4:RAMP2 1:2, Fig S3b, read-out: IP1 accumulation)?
**A.** 28%

**Q.** What about the activation at 20 µM (ratio MRGPRX4:RAMP2 1:2, log [Nateglinide] (M) -4.69897, Fig S3b, read-out: IP1 accumulation) of the same compound?
**A.** 15.2%

**Q.** And the activation at 4 µM (ratio MRGPRX4:RAMP2 1:2, log [Nateglinide] (M) -5.39794, Fig S3b, read-out: IP1 accumulation)?
**A.** 6.45%

**Q.** And the activation at 0.8 µM (ratio MRGPRX4:RAMP2 1:2, log [Nateglinide] (M) -6.09691, Fig S3b, read-out: IP1 accumulation)?
**A.** 4.89%

**Q.** And the activation at […] (ratio MRGPRX4:RAMP2 1:2, log [Nateglinide] (M) -6.79588, Fig S3b, read-out: IP1 accumulation)?
**A.** 3.86%

**Q.** What about the activation at 0.032 µM (ratio MRGPRX4:RAMP2 1:2, log [Nateglinide] (M) -7.49485, Fig S3b, read-out: IP1 accumulation) of the same compound?
**A.** 3.91%

**Q.** What about the Emax (Figure 4a bottom, DNA ratio MRGPRX4:RAMP2 1:1, MRGPRX4 alone = 100, read-out: efficacy) of the same compound?
**A.** 35.1%

**Q.** And the EC50 (DNA ratio MRGPRX4:RAMP2 1:0.25)?
**A.** 9.57 µM and 9.23 µM (2×)

**Q.** What about the EC50 (DNA ratio MRGPRX4:RAMP2 1:0.5) of the same compound?
**A.** 15.1 µM and 11.3 µM and 13.1 µM

**Q.** And the EC50 (DNA ratio MRGPRX4:RAMP2 1:0.75)?
**A.** 15.4 µM and 13.9 µM and 10.4 µM

**Q.** And the EC50 (DNA ratio MRGPRX4:RAMP2 1:1)?
**A.** 39.9 µM and 19.4 µM and 24.3 µM

**Q.** And the “response to agonist, X4:ramp2.I:0.25” value (Figure 4c-f, agonist 100µM, X4:ramp2 1:0.25, MRGPRX4 = 100)?
**A.** 71.8475 and 74.3589
